Results from patent US20240270762A1, “PENICILLIN-BINDING PROTEIN INHIBITORS” (priority 2021, published 2024).
≈ marks a conversion by molar mass, not a printed value.

Tests used:
A. baumannii ATCC 17978 = assay: microbe, parasite or virus in culture; format: cell-based; conditions: Acinetobacter baumannii, ATCC17978, read-out: Minimum inhibitory concentration (MIC), A. baumannii ATCC 17978
[1] = molecular target: T1, PBP3 from Pseudomonas aeruginosa (PAO1) (Pseudomonas aeruginosa, UniProt G3XD46); assay: Bocillin-FL fluorescence polarization competition binding, P. aeruginosa PBP3; conditions: Binding affinity to P. aeruginosa PBP3; fluorescence polarization competition binding assay using Bocillin-FL; read-out: P. aeruginosa PBP3 Potency
T1 construct: made in house
In short: (§1)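 Purified PBPs pre-incubated with inhibitor (E. coli PBP3 1.5 μM, 30 min; P. aeruginosa PBP3 0.75 μM, A. baumannii PBP1a 1 μM and PBP3 0.2 μM, 15 min), then Bocillin-FL 0.1 μM (0.05 μM for PBP1a) added; FP read up to 60 min. EC50 = concentration halving bound Bocillin-FL.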

A. baumannii 1258916 = assay: microbe, parasite or virus in culture; format: cell-based, Acinetobacter baumannii; conditions: Acinetobacter baumannii, 1258916, read-out: Minimum inhibitory concentration (MIC), A. baumannii 1258916
P. aeruginosa CDC-0054 = assay: microbe, parasite or virus in culture; format: cell-based; conditions: Pseudomonas aeruginosa, CDC0054, read-out: Minimum inhibitory concentration, P. aeruginosa CDC-0054
A. baumannii ATCC 19606 = assay: microbe, parasite or virus in culture; format: cell-based; conditions: Acinetobacter baumannii, ATCC19606, read-out: Minimum inhibitory concentration (MIC), A. baumannii ATCC 19606
[2] = molecular target: T2, PBP3 from Acinetobacter baumannii (ATCC 19606) (Acinetobacter baumannii, UniProt A0ABX6CK25); assay: Bocillin-FL fluorescence polarization competition binding, A. baumannii PBP3; conditions: fluorescence polarization competition binding assay using Bocillin-FL; read-out: A. baumannii PBP3 Potency
T2 sequence (A0ABX6CK25 64-610): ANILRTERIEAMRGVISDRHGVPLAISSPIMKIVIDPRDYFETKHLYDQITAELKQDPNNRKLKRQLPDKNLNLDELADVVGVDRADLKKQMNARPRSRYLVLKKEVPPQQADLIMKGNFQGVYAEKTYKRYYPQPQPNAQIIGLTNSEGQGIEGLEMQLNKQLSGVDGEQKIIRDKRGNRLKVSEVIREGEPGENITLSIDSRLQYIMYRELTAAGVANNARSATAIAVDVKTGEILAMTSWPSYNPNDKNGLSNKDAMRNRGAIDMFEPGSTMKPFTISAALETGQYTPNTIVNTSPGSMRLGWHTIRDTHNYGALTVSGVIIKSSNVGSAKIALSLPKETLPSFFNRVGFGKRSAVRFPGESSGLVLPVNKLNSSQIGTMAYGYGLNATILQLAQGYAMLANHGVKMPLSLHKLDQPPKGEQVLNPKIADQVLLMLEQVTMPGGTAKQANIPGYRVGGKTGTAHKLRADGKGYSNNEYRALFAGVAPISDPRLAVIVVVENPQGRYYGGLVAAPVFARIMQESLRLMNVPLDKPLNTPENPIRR
In short: as §1

P. aeruginosa CDC-0110 = assay: microbe, parasite or virus in culture; format: cell-based; conditions: Pseudomonas aeruginosa, CDC0110, read-out: Minimum inhibitory concentration, P. aeruginosa CDC-0110
P. aeruginosa CDC-0095 = assay: microbe, parasite or virus in culture; format: cell-based; conditions: Pseudomonas aeruginosa, CDC0095, read-out: Minimum inhibitory concentration, P. aeruginosa CDC-0095
P. aeruginosa CDC-0090 = assay: microbe, parasite or virus in culture; format: cell-based; conditions: Pseudomonas aeruginosa, CDC0090, read-out: Minimum inhibitory concentration, P. aeruginosa CDC-0090

T1 sequence (G3XD46 whole entry): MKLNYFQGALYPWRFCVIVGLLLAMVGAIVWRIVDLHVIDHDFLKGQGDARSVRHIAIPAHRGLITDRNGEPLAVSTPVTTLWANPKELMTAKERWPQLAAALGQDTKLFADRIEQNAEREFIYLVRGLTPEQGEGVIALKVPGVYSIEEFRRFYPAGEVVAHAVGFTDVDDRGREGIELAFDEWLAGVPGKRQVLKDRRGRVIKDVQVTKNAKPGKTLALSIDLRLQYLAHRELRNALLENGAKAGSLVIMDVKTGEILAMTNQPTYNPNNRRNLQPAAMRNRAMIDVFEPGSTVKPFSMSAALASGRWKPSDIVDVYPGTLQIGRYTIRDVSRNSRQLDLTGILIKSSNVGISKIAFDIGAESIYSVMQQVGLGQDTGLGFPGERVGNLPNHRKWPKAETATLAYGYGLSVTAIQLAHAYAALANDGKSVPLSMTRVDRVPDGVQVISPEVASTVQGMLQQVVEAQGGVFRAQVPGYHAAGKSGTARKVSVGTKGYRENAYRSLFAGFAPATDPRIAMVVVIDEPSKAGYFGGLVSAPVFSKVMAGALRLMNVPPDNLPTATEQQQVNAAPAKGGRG

Compound | MIC (A. baumannii ATCC 17978) | IC50 [1] | MIC (A. baumannii 1258916) | MIC (P. aeruginosa CDC-0054) | MIC (A. baumannii ATCC 19606) | IC50 [2] | MIC (P. aeruginosa CDC-0110) | MIC (P. aeruginosa CDC-0095) | MIC (P. aeruginosa CDC-0090)
O=C(O)c1c(F)ccc2c1OB(O)[C@@H](NC(=O)C(NC(=O)N1CCN(C3CCN(C(=O)Nc4c(F)ccc(O)c4F)CC3)C(=O)C1=O)c1cc(F)c(O)c(O)c1Cl)C2 (stereo partly drawn) [Example 487, (3R)-3-(2-(2-chloro-5-fluoro-3,4-dihydroxyphenyl)-2-(4-(1-((2,6-difluoro-3-hydroxyphenyl)carbamoyl)piperidin-4-yl)-2,3-dioxopiperazine-1-carboxamido)acetamido)-7-fluoro-2-hydroxy-3,4-dihydro-2H-benzo[e][1,2]oxaborinine-8-carboxylic acid] | < 1 mg/L | < 10 µM | < 1 mg/L | < 1 mg/L | < 1 mg/L | < 10 µM | < 1 mg/L | < 1 mg/L | 2 to 4 mg/L (≈ 2.39 to 4.78 µM)
O=C(O)c1c(F)ccc2c1OB(O)[C@@H](NC(=O)C(NC(=O)N1CCN(C3CCN(C(=O)Nc4cc(O)c(F)c(F)c4)CC3)C(=O)C1=O)c1cc(F)c(O)c(O)c1Cl)C2 (stereo partly drawn) [Example 488, (3R)-3-(2-(2-chloro-5-fluoro-3,4-dihydroxyphenyl)-2-(4-(1-((3,4-difluoro-5-hydroxyphenyl)carbamoyl)piperidin-4-yl)-2,3-dioxopiperazine-1-carboxamido)acetamido)-7-fluoro-2-hydroxy-3,4-dihydro-2H-benzo[e][1,2]oxaborinine-8-carboxylic acid] | < 1 mg/L | < 10 µM | < 1 mg/L | < 1 mg/L | < 1 mg/L | < 10 µM | < 1 mg/L | 2 to 4 mg/L (≈ 2.39 to 4.78 µM) | < 1 mg/L
O=C(O)c1c(F)ccc2c1OB(O)[C@@H](NC(=O)C(NC(=O)N1CCN(C3CCN(C(=O)Nc4ccc(Cl)c(O)c4F)CC3)C(=O)C1=O)c1cc(F)c(O)c(O)c1Cl)C2 (stereo partly drawn) [Example 489, (3R)-3-(2-(4-(1-((4-chloro-2-fluoro-3-hydroxyphenyl)carbamoyl)piperidin-4-yl)-2,3-dioxopiperazine-1-carboxamido)-2-(2-chloro-5-fluoro-3,4-dihydroxyphenyl)acetamido)-7-fluoro-2-hydroxy-3,4-dihydro-2H-benzo[e][1,2]oxaborinine-8-carboxylic acid] | < 1 mg/L | < 10 µM | < 1 mg/L | < 1 mg/L | < 1 mg/L | < 10 µM | 2 to 4 mg/L (≈ 2.34 to 4.69 µM) | < 1 mg/L | 2 to 4 mg/L (≈ 2.34 to 4.69 µM)
O=C(O)c1c(F)ccc2c1OB(O)[C@@H](NC(=O)C(NC(=O)N1CCN(C3CCN(C(=O)Nc4cc(O)c(F)cc4Cl)CC3)C(=O)C1=O)c1cc(F)c(O)c(O)c1Cl)C2 (stereo partly drawn) [Example 490, (3R)-3-(2-(4-(1-((2-chloro-4-fluoro-5-hydroxyphenyl)carbamoyl)piperidin-4-yl)-2,3-dioxopiperazine-1-carboxamido)-2-(2-chloro-5-fluoro-3,4-dihydroxyphenyl)acetamido)-7-fluoro-2-hydroxy-3,4-dihydro-2H-benzo[e][1,2]oxaborinine-8-carboxylic acid] | < 1 mg/L | < 10 µM | 2 to 4 mg/L (≈ 2.34 to 4.69 µM) | 8 to 16 mg/L (≈ 9.37 to 18.7 µM) | < 1 mg/L | < 10 µM | 2 to 4 mg/L (≈ 2.34 to 4.69 µM) | 2 to 4 mg/L (≈ 2.34 to 4.69 µM) | 2 to 4 mg/L (≈ 2.34 to 4.69 µM)
O=C(O)c1c(F)ccc2c1OB(O)[C@@H](NC(=O)[C@H](NC(=O)N1CCN(C3CCN(C(=O)Nc4cc(F)c(F)c(O)c4F)CC3)C(=O)C1=O)c1cc(F)c(O)c(O)c1Cl)C2 [Example 491, (R)-3-((R)-2-(2-chloro-5-fluoro-3,4-dihydroxyphenyl)-2-(2,3-dioxo-4-(1-((2,4,5-trifluoro-3-hydroxyphenyl)carbamoyl)piperidin-4-yl)piperazine-1-carboxamido)acetamido)-7-fluoro-2-hydroxy-3,4-dihydro-2H-benzo[e][1,2]oxaborinine-8-carboxylic acid] | < 1 mg/L | < 10 µM | < 1 mg/L | < 1 mg/L | < 1 mg/L | < 10 µM | < 1 mg/L | 2 to 4 mg/L (≈ 2.34 to 4.68 µM) | 2 to 4 mg/L (≈ 2.34 to 4.68 µM)
O=C(O)c1c(F)ccc2c1OB(O)[C@@H](NC(=O)[C@H](NC(=O)N1CCN(C3CCN(Cc4cccnc4)CC3)C1=O)c1cc(F)c(O)c(O)c1Cl)C2 [Example 492, (R)-3-((R)-2-(2-chloro-5-fluoro-3,4-dihydroxyphenyl)-2-(2-oxo-3-(1-(pyridin-3-ylmethyl)piperidin-4-yl)imidazolidine-1-carboxamido)acetamido)-7-fluoro-2-hydroxy-3,4-dihydro-2H-benzo[e][1,2]oxaborinine-8-carboxylic acid] | < 1 mg/L | < 10 µM | < 1 mg/L | < 1 mg/L | < 1 mg/L | < 10 µM | < 1 mg/L | 2 to 4 mg/L (≈ 2.74 to 5.49 µM) | < 1 mg/L
O=C(O)c1c(F)ccc2c1OB(O)[C@@H](NC(=O)[C@H](NC(=O)N1CCN(C3CCN(Cc4ccncc4)CC3)C1=O)c1cc(F)c(O)c(O)c1Cl)C2 [Example 493, (R)-3-((R)-2-(2-chloro-5-fluoro-3,4-dihydroxyphenyl)-2-(2-oxo-3-(1-(pyridin-4-ylmethyl)piperidin-4-yl)imidazolidine-1-carboxamido)acetamido)-7-fluoro-2-hydroxy-3,4-dihydro-2H-benzo[e][1,2]oxaborinine-8-carboxylic acid] | < 1 mg/L | < 10 µM | < 1 mg/L | 2 to 4 mg/L (≈ 2.74 to 5.49 µM) | < 1 mg/L | < 10 µM | < 1 mg/L | < 1 mg/L | < 1 mg/L
O=C(O)c1c(F)ccc2c1OB(O)[C@@H](NC(=O)[C@H](NC(=O)N1CCN(S(=O)(=O)c3ccc(O)c(O)c3Cl)C1=O)c1ccc(P(=O)(O)O)cc1)C2 [Example 506, (R)-3-((R)-2-(3-((2-chloro-3,4-dihydroxyphenyl)sulfonyl)-2-oxoimidazolidine-1-carboxamido)-2-(4-phosphonophenyl)acetamido)-7-fluoro-2-hydroxy-3,4-dihydro-2H-benzo[e][1,2]oxaborinine-8-carboxylic acid] | < 1 mg/L | < 10 µM | < 1 mg/L | < 1 mg/L | < 1 mg/L |  | < 1 mg/L | < 1 mg/L | < 1 mg/L
O=C(O)c1cccc2c1OB(O)[C@@H](NC(=O)[C@H](NC(=O)N1CCN(S(=O)(=O)c3ccc(O)c(O)c3Cl)C1=O)c1ccc(P(=O)(O)O)cc1)C2 [Example 509, (R)-3-((R)-2-(3-((2-chloro-3,4-dihydroxyphenyl)sulfonyl)-2-oxoimidazolidine-1-carboxamido)-2-(4-phosphonophenyl)acetamido)-2-hydroxy-3,4-dihydro-2H-benzo[e][1,2]oxaborinine-8-carboxylic acid] | < 1 mg/L | < 10 µM | < 1 mg/L | < 1 mg/L | < 1 mg/L |  | < 1 mg/L | < 1 mg/L | < 1 mg/L
